molecular target: T1, Adrenergic receptor alpha-1 (Rattus norvegicus, UniProt P15823+P23944+P43140); assay: Antagonistic activity for Alpha-1 adrenergic receptor was measured as inhibition of phenylephrine-[…] contractions in isolated Sprague-Dawley rat anacoccygeal muscles; assay type: functional
T1 sequence (P15823 whole entry): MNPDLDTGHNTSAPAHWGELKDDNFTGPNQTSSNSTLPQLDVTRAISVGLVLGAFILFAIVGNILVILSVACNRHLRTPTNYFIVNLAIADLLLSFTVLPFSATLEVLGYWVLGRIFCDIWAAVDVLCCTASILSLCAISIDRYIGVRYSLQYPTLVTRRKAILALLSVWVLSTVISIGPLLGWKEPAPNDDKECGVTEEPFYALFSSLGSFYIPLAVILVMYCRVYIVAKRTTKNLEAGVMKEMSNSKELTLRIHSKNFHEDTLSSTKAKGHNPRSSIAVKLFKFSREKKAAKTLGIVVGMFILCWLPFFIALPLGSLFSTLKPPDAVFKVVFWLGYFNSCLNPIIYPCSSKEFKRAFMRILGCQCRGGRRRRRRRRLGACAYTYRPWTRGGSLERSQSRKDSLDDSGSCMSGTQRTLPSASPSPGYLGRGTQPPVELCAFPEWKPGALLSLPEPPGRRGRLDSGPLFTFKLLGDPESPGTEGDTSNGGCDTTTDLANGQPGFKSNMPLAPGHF
T1 sequence (P23944 whole entry): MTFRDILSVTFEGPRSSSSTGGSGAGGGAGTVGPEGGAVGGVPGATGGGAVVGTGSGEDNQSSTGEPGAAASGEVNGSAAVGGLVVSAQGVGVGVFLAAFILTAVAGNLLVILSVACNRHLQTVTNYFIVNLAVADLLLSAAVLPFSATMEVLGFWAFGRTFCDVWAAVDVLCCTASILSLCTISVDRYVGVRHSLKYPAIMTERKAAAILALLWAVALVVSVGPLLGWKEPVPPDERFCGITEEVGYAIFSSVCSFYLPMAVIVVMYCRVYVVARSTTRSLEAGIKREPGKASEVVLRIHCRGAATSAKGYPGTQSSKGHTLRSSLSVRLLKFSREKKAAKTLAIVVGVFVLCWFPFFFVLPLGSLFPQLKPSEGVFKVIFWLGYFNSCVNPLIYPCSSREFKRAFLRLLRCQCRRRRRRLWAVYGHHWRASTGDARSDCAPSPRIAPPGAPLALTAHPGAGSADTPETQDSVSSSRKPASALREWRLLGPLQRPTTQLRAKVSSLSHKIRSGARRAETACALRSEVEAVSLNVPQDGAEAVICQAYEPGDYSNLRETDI
T1 sequence (P43140 whole entry): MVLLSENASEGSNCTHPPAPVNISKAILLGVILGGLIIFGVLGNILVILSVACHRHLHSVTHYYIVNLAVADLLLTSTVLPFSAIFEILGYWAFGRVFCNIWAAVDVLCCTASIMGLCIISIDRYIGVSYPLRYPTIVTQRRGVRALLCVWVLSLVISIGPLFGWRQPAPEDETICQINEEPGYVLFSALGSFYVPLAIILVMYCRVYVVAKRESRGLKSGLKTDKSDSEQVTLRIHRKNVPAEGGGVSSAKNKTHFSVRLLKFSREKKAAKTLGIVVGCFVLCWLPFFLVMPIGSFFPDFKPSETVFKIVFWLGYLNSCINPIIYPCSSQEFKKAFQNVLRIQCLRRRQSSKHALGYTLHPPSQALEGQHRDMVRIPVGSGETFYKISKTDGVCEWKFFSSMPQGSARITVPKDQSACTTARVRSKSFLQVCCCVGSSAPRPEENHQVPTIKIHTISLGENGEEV

In order of falling pA2:
1. COc1ccccc1N1CCN(CCNC(=O)c2ccco2)CC1  9.12
2. COc1cccc(N2CCN(CCNC(=O)c3ccco3)CC2)c1  8.56
3. COc1ccc(Cl)cc1N1CCN(CCNC(=O)c2ccco2)CC1  8.56
4. COc1ccccc1N1CCN(CCNC(=O)c2cccnc2)CC1  7.87
5. COc1ccc(N2CCN(CCNC(=O)c3ccco3)CC2)cc1  7.85
6. COc1ccc(N2CCN(CCNC(=O)c3cc4ccccc4oc3=O)CC2)cc1  7.74
7. Cc1ccc(N2CCN(CCNC(=O)c3ccco3)CC2)c(C)c1  7.72
8. COc1ccccc1N1CCN(CCNC(=O)c2cc3ccccc3oc2=O)CC1  7.71
9. Cc1ccc(N2CCN(CCNC(=O)c3cc4ccccc4o3)CC2)c(C)c1  7.36
10. COc1ccc(Cl)cc1N1CCN(CCNC(=O)c2cc3ccccc3oc2=O)CC1  7.31
11. COc1ccc(Cl)cc1N1CCN(CCNC(=O)c2ccncc2)CC1  7.18
12. Cc1ccc(N2CCN(CCNC(=O)c3ccncc3)CC2)c(C)c1  7.07
13. Cc1ccc(N2CCN(CCNC(=O)c3cc4ccccc4o3)CC2)cc1  6.92
14. Cc1ccc(N2CCN(CCNC(=O)c3cccnc3)CC2)cc1  6.53
15. Cc1ccc(N2CCN(CCNC(=O)c3ccncc3)CC2)cc1  6.5
16. Cc1ccc(N2CCN(CCNC(=O)c3ccco3)CC2)cc1  6.47
17. COc1ccc(N2CCN(CCNC(=O)c3ccncc3)CC2)cc1  5.95
18. Cc1ccc(N2CCN(CCNC(=O)c3cccnc3)CC2)c(C)c1  5.94
19. COc1ccc(N2CCN(CCNC(=O)c3cccnc3)CC2)cc1  5.79
20. COc1ccc(Cl)cc1N1CCN(CCNC(=O)c2cc3ccccc3o2)CC1  5.63
21. COc1ccc(Cl)cc1N1CCN(CCNC(=O)c2cccnc2)CC1  5.56

Source: ChEMBL document CHEMBL1139644, “Pharmacophore-based design, synthesis, biological evaluation, and 3D-QSAR studies of aryl-piperazines as alpha(1)-adrenoceptor antagonists” (Bioorg Med Chem Lett, 2005)
